Experimental findings from patent US20100069499A1 (priority 2007, published 2010) are described below.

The test system of one experiment is Sclerotinia sclerotiorum. As to the kind of experiment: Test of preventive effect on cucumber stem rot. The settings on record: cucumber (Sagamihanjiro), foliage application 500 ppm, 4 days at 18° C. and high humidity. Format: in vivo. As for the experimental part: (§1) The controlling effect was evaluated by visually observing the area or a lesion spots on each of test plants at the time of investigation and comparing the area of lesion spots on a plant treated with the compound of the present invention with that on an untreated plant.
Each of plastic pots was filled with sandy loam and sown with cucumber (variety; Sagamihanjiro), followed by growing in a greenhouse for 12 days. The compound 2 of the present invention was formulated into a flowable formulation according to Formulation Example 6. The flowable formulation was diluted to a predetermined concentration (500 ppm) with water, and foliage application of the dilution was carried out so that the dilution adhered sufficiently to the surfaces of leaves of the grown cucumber young seedling. After the foliage application, the plant was air-dried and a PDA medium containing mycelia of Sclerotinia sclerotiorum was placed on the surfaces of the cucumber leaves. After the inoculation, the plant was grown at 18° C. and high humidity for 4 days. Then, the area of lesion spots was investigated.

Another experiment deals with Fusarium culmorum. As to the kind of experiment: Test of preventive effect on wheat Fusarium blight. It counts as in vivo. The settings on record: wheat (Shirogane), foliage application 500 ppm, 4 days darkness and high humidity at 23° C. then 3 days lighting. As for the experimental part: as §1
Each of plastic pots was filled with sandy loam and sown with wheat (cultivar; Shirogane), followed by growing in a greenhouse for 10 days. The compound 1 of the present invention was formulated into a flowable formulation according to Formulation Example 6. The flowable formulation was diluted to a predetermined concentration (500 ppm) with water, and foliage application of the dilution was carried out so that the dilution adhered sufficiently to the surfaces of leaves of the grown wheat young seedling. After the foliage application, the plant was air-dried and then inoculated by spraying a water suspension of spores of Fusarium culmorum. After the inoculation, the plant was held under darkness and high humidity conditions at 23° C. for 4 days and held under lighting conditions for 3 days, and then the area of lesion spots was investigated.

`C#CCOc1c(F)cc(C(=O)NC2CCCCC2C)cc1Cl` (centres unmarked) [compound 2, N-(2-methylcyclohexyl)-3-chloro-5-fluoro-4-(2-propynyloxy)benzamide]: the “area of lesion spots on the treated plant relative to that on an untreated plant” value with Sclerotinia sclerotiorum is no more than 30%.
With `C#CCOc1c(F)cc(C(=O)NCC2CCCCC2)cc1Cl` [compound 1, N-(cyclohexylmethyl)-3-chloro-5-fluoro-4-(2-propynyloxy)benzamide], the “area of lesion spots on the treated plant relative to that on an untreated plant” value with Fusarium culmorum is reported as no more than 30%.
